# Assay: Compound was tested for the inhibition of [3H]-thymidine uptake in CHO p-5 cells transfected with human Dopamine receptor D4.2
row,SMILES,IC50
1,Cc1ccc(N2CCN(Cc3ccc4oc(=O)ccc4c3)CC2)cc1 [6-(4-p-Tolyl-piperazin-1-ylmethyl)-chromen-2-one],> 1000 nM
2,Cc1ccc(N2CCN(Cc3ccc4ccc(=O)oc4c3)CC2)cc1Cl [7-[4-(3-Chloro-4-methyl-phenyl)-piperazin-1-ylmethyl]-chromen-2-one],5.4 nM
